Laboratory results: US10251394B2, “Molecules having pesticidal utility, and intermediates, compositions, and processes, related thereto” (Dow AgroSciences LLC, priority 2016, dated 2019)

Tests used:
Type in all cases: in vivo
[1] = test system: Cabbage Looper (Trichoplusia ni); test: Bioassay on Cabbage Looper (CL), 128-well diet tray assay; conditions: Cabbage Looper, Table ABC, read-out: CL rating
Method in brief: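 Mortality after five to seven days at 25° C (14:10 photoperiod), averaged over eight wells per compound. Diet in each well carried 50 μg/cm^2 of dried test molecule and received one to five second-instar larvae.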

[2] = test system: Green Peach Aphid (Myzus persicae); test: Bioassay on Green Peach Aphid (GPA), foliar spray on cabbage seedlings; conditions: 72 h, Table ABC, read-out: GPA rating
Experimental: Example B: Bioassays on Green Peach Aphid (Myzus Persicae, MYZUPE) (“GPA”) Certain molecules disclosed in this document were tested against GPA using procedures described in the following example. In the reporting of the results, the “GPA & YFM Rating Table” was used (See Table Section). Cabbage seedlings grown in 3-inch pots, with 2-3 small (3-5 cm) true leaves, were used as test substrate. The seedlings were infested with 20-50 GPA (wingless adult and nymph stages) one day prior to chemical application. Four pots with individual seedlings were used for each treatment. Test molecules (2 mg) were dissolved in 2 mL of acetone/methanol (1:1) solvent, forming stock solutions of 1000 ppm test molecule. The stock solutions were diluted 5× with 0.025% Tween 20 in water to obtain the solution at 200 ppm test molecule. A hand-held aspirator-type sprayer was used for spraying a solution to both sides of […] leaves until runoff. Reference plants (solvent check) were sprayed with the diluent only containing 20% by volume of acetone/methanol (1:1) solvent. Treated plants were held in a holding room for three days at approximately 25° C. and ambient relative humidity (RH) prior to grading. Evaluation was conducted by counting the number of live aphids per plant under a microscope. Percent Control was measured by using Abbott's correction formula (W. S. Abbott, “A Method of Computing the Effectiveness of an Insecticide” J. Econ. Entomol. 18 (1925), pp. 265-267) as follows. Corrected % Control=100*(X−Y)/X • where • X=No. of live aphids on solvent check plants and • Y=No. of live aphids on treated plants The results are indicated in the table entitled “Table ABC: Biological Results” (See Table Section).

[3] = test system: Beet Armyworm (Spodoptera exigua); test: Bioassay on Beet Armyworm (BAW), 128-well diet tray assay; conditions: Beet Armyworm, Table ABC, read-out: BAW rating
Method in brief: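 Percent mortality, averaged over eight wells, was scored after five to seven days at 25° C under 14:10 light-dark. Each well's diet carried 50 μg/cm^2 of test molecule applied in acetone-water (90:10) and dried before one to five second-instar larvae were added.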

[4] = test system: Yellow Fever Mosquito (Aedes aegypti); test: Bioassay on Yellow Fever Mosquito (YFM) larvae, 96-well plate; conditions: Table ABC
Method in brief: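 About 1-day-old larvae in water with liver powder were added to wells holding compound from a 4000 ppm DMSO master diluted in 90:10 water:acetone. Plates covered and kept at room temperature for 3 days, then each well scored for mortality on a rating scale.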

Row | SMILES | pest or weed control at 50 µg/cm2 [1] [%] | pest or weed control at 200 µg/mL [2] [%] | pest or weed control at 50 µg/cm2 [3] [%] | YFM rating [4]
1 | O=C(NC1(C(=O)NCC(F)(F)F)CC1)c1ccc(/C(F)=C/C(c2cc(Cl)c(Cl)c(Cl)c2)C(F)(F)F)cc1C(F)(F)F (centres unmarked) [F3, (Z)-4-(1,4,4,4-Tetrafluoro-3-(3,4,5-trichlorophenyl)but-1-en-1-yl)-N-(1-((2,2,2-trifluoroethyl)carbamoyl)cyclopropyl)-2-(trifluoromethyl)benzamide] | 50 to 100 | 80 to 100 | 50 to 100 | 
2 | O=C(N[C@@H]1CON(CC(F)(F)F)C1=O)c1ccc(/C(F)=C/C(c2cc(Cl)c(Cl)c(Cl)c2)C(F)F)cc1C(F)(F)F (stereo partly drawn) [F177, N—((R)-3-Oxo-2-(2,2,2-trifluoroethyl)isoxazolidin-4-yl)-4-((Z)-1,4,4-trifluoro-3-(3,4,5-trichlorophenyl)but-1-en-1-yl)-2-(trifluoromethyl)benzamide] | 50 to 100 | 80 to 100 | 50 to 100 | A (80-100)
3 | O=C(N[C@@H]1CON(CC(F)(F)F)C1=O)c1ccc(/C(F)=C/C(c2ccc(C(F)(F)F)c(Cl)c2)C(F)(F)F)cc1C(F)(F)F (stereo partly drawn) [F180, 4-((Z)-3-(3-Chloro-4-(trifluoromethyl)phenyl)-1,4,4,4-tetrafluorobut-1-en-1-yl)-N—((R)-3-oxo-2-(2,2,2-trifluoroethyl)isoxazolidin-4-yl)-2-(trifluoromethyl)benzamide] | 50 to 100 | 80 to 100 | 50 to 100 | 
4 | O=C(NC1(C(=O)NCC(F)(F)F)CC1)c1ccc(/C(F)=C/C(c2cc(Cl)cc(Br)c2)C(F)(F)F)cc1C(F)(F)F (centres unmarked) [PF32, (Z)-4-(3-(3-Bromo-5-chlorophenyl)-1,4,4,4-tetrafluorobut-1-en-1-yl)-N-(1-((2,2,2-trifluoroethyl)carbamoyl)cyclopropyl)-2-(trifluoromethyl)benzamide] |  | 0 to 80 |  | 
5 | Cc1cc(C(/C=C(\F)c2ccc(C(=O)NCC(=O)NCC(F)(F)F)c(C(F)(F)F)c2)C(F)(F)F)cc(C)c1Cl (centres unmarked) [F71, (Z)-4-(3-(4-Chloro-3,5-dimethylphenyl)-1,4,4,4-tetrafluorobut-1-en-1-yl)-N-(2-oxo-2-((2,2,2-trifluoroethyl)amino)ethyl)-2-(trifluoromethyl)benzamide] | 50 to 100 |  | 50 to 100 | B (More than 0-Less than 80)
6 | O=C(NC1(C(=O)NCC(F)(F)F)CC1)c1ccc(/C(F)=C/C(c2ccc(Cl)c(Cl)c2)C(F)(F)F)cc1C(F)(F)F (centres unmarked) [F41, (Z)-4-(3-(3,4-Dichlorophenyl)-1,4,4,4-tetrafluorobut-1-en-1-yl)-N-(1-((2,2,2-trifluoroethyl)carbamoyl)cyclopropyl)-2-(trifluoromethyl)benzamide] | 50 to 100 |  | 50 to 100 | A (80-100)
7 | C[C@@H](NC(=O)c1ccc(/C(F)=C/C(c2ccc(C(F)(F)F)c(Cl)c2)C(F)(F)F)cc1C(F)(F)F)C(=O)NCC(F)(F)F (stereo partly drawn) [F205, 4-((Z)-3-(3-Chloro-4-(trifluoromethyl)phenyl)-1,4,4,4-tetrafluorobut-1-en-1-yl)-N—((R)-1-oxo-1-((2,2,2-trifluoroethyl)amino)propan-2-yl)-2-(trifluoromethyl)benzamide] | 50 to 100 |  | 50 to 100 | B (More than 0-Less than 80)
8 | C[C@@H](NC(=O)c1ccc(/C(F)=C/C(c2ccc(Br)c(Cl)c2)C(F)(F)F)cc1C(F)(F)F)C(=O)NCC(F)(F)F (some centres unmarked) [PF25] | 50 to 100 |  | 50 to 100 | B (More than 0-Less than 80)
9 | CN(CC(F)(F)F)C(=O)CNC(=O)c1ccc(/C(F)=C/C(c2cc(Br)c(Cl)c(Br)c2)C(F)(F)F)cc1C(F)(F)F (centres unmarked) [F77, (Z)-4-(3-(3,5-Dibromo-4-chlorophenyl)-1,4,4,4-tetrafluorobut-1-en-1-yl)-N-(2-(methyl(2,2,2-trifluoroethyl)amino)-2-oxoethyl)-2-(trifluoromethyl)benzamide] | 50 to 100 |  | 50 to 100 | A (80-100)
10 | O=C(CNC(=O)c1ccc(/C(F)=C/C(c2ccc(C(F)(F)F)c(Br)c2)C(F)(F)F)cc1C(F)(F)F)NCC(F)(F)F (centres unmarked) [F209, (Z)-4-(3-(3-Bromo-4-(trifluoromethyl)phenyl)-1,4,4,4-tetrafluorobut-1-en-1-yl)-N-(2-oxo-2-((2,2,2-trifluoroethyl)amino)ethyl)-2-(trifluoromethyl)benzamide] | 50 to 100 |  | 50 to 100 | A (80-100)
11 | C/C=C/c1c(Cl)cc(C(/C=C(\F)c2ccc(C(=O)N[C@H](C)C(=O)NCC(F)(F)F)c(C(F)(F)F)c2)C(F)(F)F)cc1Cl (stereo partly drawn) [F147, 4-((Z)-3-(3,5-Dichloro-4-((E)-prop-1-en-1-yl)phenyl)-1,4,4,4-tetrafluorobut-1-en-1-yl)-N—((R)-1-oxo-1-((2,2,2-trifluoroethyl)amino)propan-2-yl)-2-(trifluoromethyl)benzamide] | 50 to 100 |  | 50 to 100 | A (80-100)
12 | C[C@@H](NC(=O)c1ccc(/C(F)=C/C(c2ccc(Br)c(Br)c2)C(F)(F)F)cc1C(F)(F)F)C(=O)N(C)CC(F)(F)F (stereo partly drawn) [PF2, 4-((Z)-3-(3,4-Dibromophenyl)-1,4,4,4-tetrafluoro-but-1-en-1-yl)-N—((R)-1-(methyl(2,2,2-trifluoroethyl)amino)-1-oxopropan-2-yl)-2-(trifluoromethyl)benzamide] | 50 to 100 |  | 50 to 100 | A (80-100)
13 | CN(CC(F)(F)F)C(=O)CNC(=O)c1ccc(/C(F)=C/C(c2ccc(Cl)c(F)c2)C(F)(F)F)cc1C(F)(F)F (centres unmarked) [PF18, (Z)-4-(3-(4-Chloro-3-fluorophenyl)-1,4,4,4-tetrafluorobut-1-en-1-yl)-N-(2-(methyl(2,2,2-trifluoroethyl)amino)-2-oxoethyl)-2-(trifluoromethyl)benzamide] | 50 to 100 |  | 50 to 100 | B (More than 0-Less than 80)
14 | C[C@@H](NC(=O)c1ccc(/C(F)=C/C(c2ccc(Cl)c(Br)c2)C(F)(F)F)cc1C(F)(F)F)C(=O)N(C)CC(F)(F)F (stereo partly drawn) [PF37, 4-((Z)-3-(3-Bromo-4-chlorophenyl)-1,4,4,4-tetrafluorobut-1-en-1-yl)-N—((R)-1-(methyl(2,2,2-trifluoroethyl)amino)-1-oxopropan-2-yl)-2-(trifluoromethyl)benzamide] | 50 to 100 |  | 50 to 100 | B (More than 0-Less than 80)
15 | O=C(CNC(=O)c1ccc(/C(F)=C/C(c2cc(Cl)cc(Cl)c2)C(F)(F)F)cc1C(F)(F)F)NCC(F)(F)F (centres unmarked) [F40, (Z)-4-(3-(3,5-Dichlorophenyl)-1,4,4,4-tetrafluorobut-1-en-1-yl)-N-(2-oxo-2-((2,2,2-trifluoroethyl)amino)ethyl)-2-(trifluoromethyl)benzamide] | 50 to 100 |  | 50 to 100 | A (80-100)
